# Data taken from US20240115564A1, “HTR1F ANTAGONISTS FOR IMPROVEMENT OF BETA CELL SURVIVAL AND FUNCTION” (The Regents of the University of California, priority 2021, published 2024).
# Assays:
# [1] = system: scd beige mice receiving human islets; experiment: Minimal (marginal mass) human islet transplant model with methysergide; assay type: in vivo, mouse; conditions: islets 300 nM 24 hours; mice 10 mg/kg daily peri-transplant, 5 days; p<0.05 log-rank
# Protocol: Taken together, FIGS. 3A-3D illustrate the prevention of human beta cell death by blocking of HTR1F signaling.
# Minimal human islet transplant model with methysergide: Human islets were treated with 300 nM methysergide maleate or vehicle for 24 hours after isolation. Seven-hundred IEq were then transplanted under the kidney capsule of scd beige mice. Four hours prior to transplant, recipient mice were injected with either 10 mg/kg methysergide maleate or vehicle. After transplant, mice were injected every 24 hours with 10 mg/kg methysergide or vehicle for 5 days. After 48 hours without methysergide treatment to allow washout of the drug, streptozotocin (250 mg/kg) was injected into the peritoneal space with 1 mL of normal saline injected subcutaneously for hydration. […] Blood glucose was assessed by glucometer (Freestyle Lite) after a 6 hour fast (9 am-3 pm). […]
# To ask if improved human beta cell survival due to HTR1F inhibition could improve glycemia after transplant, human islets were treated with methysergide or vehicle and then a marginal mass of islets was transplanted into mice. […] After 2 days to allow for methysergide clearance, the endogenous mouse beta cells were destroyed using streptozotocin and monitored for diabetes development. […]
# dissociated human islets = experiment: Sytox Green cell death in dissociated human islets with thapsigargan and methysergide; assay type: cell-based; conditions: 48 hours
# Protocol: Each graph is from an independent donor. *p<0.05 for thapsigargan and for the interaction between methysergide and thapsigargan by 2-way ANOVA. Standard error is shown.
# (§1) Human beta cell death and proliferation: Islets were dissociated and plated on 804G coated plates as done for the screens. For Sytox Green assays, islets were plated into 96 well plates and Sytox Green (Thermo) was added to the media (30 nM) and green fluorescence and bright field images were captured at 24 hours during culture (Incucyte). The number of green nuclei normalized to the cell density (calculated by brightfield image) was measured in biological triplicate (FIG. 2A). For FIG. 3C, dead nuclei were normalized to total nuclei as measured after treatment of the cells with 0.0625% Triton X-100. For the in vitro TUNEL assay (FIG. 2B and FIG. 2C), cells were fixed in 4% paraformaldehyde in calcium/magnesium free PBS for 15 minutes at room temperature, permeabilized with 0.1% Triton X-100 for 1 hour, blocked with 10% donkey serum in PBS for 1 hour at room temperature, and stained with guinea pig anti-insulin antibody (Agilent) overnight at 4 degrees. Secondary antibody was anti-guinea pig 488 (Thermo) at 1:300 for 1 hour at room temperature. For TUNEL staining, In Situ Death Detection Kit, TMR red (Roche) was used per the manufacturer's protocol in combination with insulin staining as above. […]
# [2] = cited from earlier work
# HTR1F [3] = target: T1, HTR1F (Homo sapiens, UniProt P30939); conditions: cited from earlier work
# T1 sequence (P30939 1-366): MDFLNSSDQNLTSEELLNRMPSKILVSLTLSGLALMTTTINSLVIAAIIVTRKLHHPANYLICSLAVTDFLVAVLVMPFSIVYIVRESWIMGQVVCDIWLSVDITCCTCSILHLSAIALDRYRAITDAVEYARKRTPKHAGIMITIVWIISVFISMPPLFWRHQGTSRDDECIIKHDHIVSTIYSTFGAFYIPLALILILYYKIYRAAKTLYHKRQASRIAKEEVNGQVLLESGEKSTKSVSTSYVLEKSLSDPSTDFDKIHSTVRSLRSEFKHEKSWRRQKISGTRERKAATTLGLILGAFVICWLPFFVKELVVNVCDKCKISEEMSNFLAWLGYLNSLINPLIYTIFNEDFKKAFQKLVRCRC
# primary human beta cells = experiment: TUNEL / insulin staining of dissociated human islets (beta cell death); assay type: cell-based; conditions: at 10 nM, 24 hours, 4 donors
# Protocol: A representative image is shown. White arrows represent cells that are TUNEL+ insulin+ cells. Scale bar is 25 μM.
# Given differences in baseline cell death between donors, the fold increase in the fraction of TUNEL+ beta cells over vehicle control is plotted. Standard error is shown, n=4 donors with at least 400 beta cells counted for each donor. *p<0.05, one-way ANOVA, post-hoc tested against vehicle.
# as §1, with “degrees.” for “degrees. Secondary antibody was anti-guinea pig 488 (Thermo) at 1:300 for 1 hour at room temperature. For TUNEL staining, In Situ Death Detection Kit, TMR red (Roche) was used per the manufacturer's protocol in combination with insulin staining as above.”
# [4] = target: other serotonin family GPCRs and adrenergic receptors; conditions: cited from earlier work
# other HTR1 receptors = conditions: cited from earlier work
# HTR1F [5] = target: T1, HTR1F; conditions: read-out: reported EC50; cited from earlier work
# primary human islet cell = experiment: Sytox Green cell death assay in dissociated human islets treated with HTR1F agonist; assay type: cell-based; conditions: 24 hours, two independent donors
# Protocol: Dissociated human islets were treated with the indicated doses of LY344864 for 24 hours. Dead cells were monitored by Sytox Green. The number of Sytox Green nuclei were normalized to cell density measured by bright field imaging. n=4 biological replicates for each donor. *p<0.05, **p<0.01 by post-hoc Student's t-test after one-way ANOVA versus vehicle treatment.
# as §1, with “degrees.” for “degrees. Secondary antibody was anti-guinea pig 488 (Thermo) at 1:300 for 1 hour at room temperature. For TUNEL staining, In Situ Death Detection Kit, TMR red (Roche) was used per the manufacturer's protocol in combination with insulin staining as above.”
# human islets = experiment: Glucose-stimulated insulin release in human islets; assay type: cell-based; conditions: 150 nM, 11 mM glucose, 9 human islet donors, vs DMSO
# Protocol: Human islets were rested for 24 hours after receipt in CMRL 1066 (Media Tech) supplemented with penicillin and streptomycin, B27 supplement, Glutamax (Thermo), and non-essential amino acids (Thermo). For both the test treatment group and the control treatment group, 40-60 islets for each of the 5 replicates were hand-picked. The islets were equilibrated for two hours at 37° C. in Kreb-Ringer Bicarbonate HEPES Buffer pH 7.4 (KRBH; 137 mM NaCl, 4.7 mM KCl, 1.2 mM KH2PO4, 1.2 mM MgSO4, 2.5 mM CaCl2), 25 mM NaHCO3, 20 mM HEPES, 2.8 mM glucose, and 0.25% BSA). Equilibration buffer was then removed and islets were incubated at 37° C. with KRBH pH 7.4 with 2.8 mM glucose and 0.25% BSA and were treated with DMSO or 150 nM HTR1F antagonist 1-(2-hydroxy-3-(naphthalen-2-yloxy)propyl)-4-(quinolin-3-yl)piperidin-4-ol. After 1 hour, islet secretion was collected and islets were treated with KRBH pH 7.4 containing 11 mM glucose and 0.25% BSA and were treated with DMSO or 150 nM antagonist at 37° C. for another hour. Following incubation, islet secretions were collected and the islets were lysed in RIPA buffer to determine the total islet insulin content. Islet secretions were diluted 2-5 fold for analysis with the Mercodia insulin ELISA kit and lysates were diluted 200-500 fold for analysis. […]
# HTR1F [6] = target: T1, HTR1F; experiment: Glosensor cAMP assay in 293T cells transfected with HTR1F cDNA; assay type: cell-based; set-up: from tissue; host or cells: primary human islets from cadaveric donors, transplanted under the kidney capsule of scid-beige mice; conditions: 10 minutes pre-treatment, serotonin 5 nM then forskolin
# Protocol: 293T cells were transiently transfected with the Glosensor plasmid (Promega) and the HTR1F cDNA. The cells were pre-treated with 1-(2-hydroxy-3-(naphthalen-2-yloxy)propyl)-4-(quinolin-3-yl)piperidin-4-ol at the concentrations shown in FIG. 4 for 10 minutes, then with serotonin (5 nM), and then forskolin and luminescence was determined. n=5, error bars show standard error. […] N=5 per concentration.
# [7] = system: MIN6 cells transfected with GFP-T2A-HTR1F; experiment: MIN6 cell death after HTR1F expression (propidium iodide); assay type: cell-based, mouse; conditions: 200 ng/mL pre-incubation, 32-40 hours after transfection
# Protocol: GFP+ cells were assessed for cell death by propidium iodide staining 32-40 hours after transfection. […] Significant post-hoc Holm adjusted Student's t-test comparisons are shown. n=33 for each group conducted over 3 independent experiments. Taken together, FIGS. 2A-2D illustrate the induction of primary human beta cell death by HTR1F signaling.
# MIN6 cell death: The human HTR1F cDNA was cloned from 293T cDNA and cloned downstream of a CMV promoter GFP-T2A expression vector with the addition of a viral signal sequence and FLAG epitope tag as previously described. The sequence was confirmed by Sanger sequencing. 10,000 MIN6 cells were plated in a 96-well plate. The following day, the cells were transfected with either the parental GFP-T2A expression vector or GFP-T2A-HTR1F using Lipofectamine 2000 (Thermo Fisher). Six hours after transfection, the media was changed to one containing propidium iodide (Thermo Fisher) at 0.3 ug/mL. The percentage of GFP+ cells that were also PI+ was measured by automated fluorescence microscopy (IncuCyte, Essen Biosciences) at 32-40 hours after transfection. For pertussis toxin (Enzo), cells were treated with 200 ng/mL during cell plating and during transfection.
compound,measurement,setting,value
"CC[C@@H](CO)NC(=O)[C@@H]1C=C2c3cccc4c3c(cn4C)C[C@H]2N(C)C1 [methysergide, (6aR,9R)—N—((S)-1-hydroxybutan-2-yl)-4,7-dimethyl-4,6,6a,7,8,9-hexahydroindolo[4,3-fg]quinoline-9-carboxamide]",diabetes-free survival / development of diabetes after streptozotocin,[1],protect mice from the development of diabetes
same,effect on death triggered by thapsigargan,dissociated human islets; 30 nM methysergide with 10 μM thapsigargan,prevent death
same,effect of methysergide alone on islet cell death,"dissociated human islets; 30 nM, dissociated cultures",no effect
same,risk during chronic treatment,[2]; chronic treatment,risk of retroperitoneal fibrosis
same,insulin secretion in humans,[2]; humans,increase insulin secretion
same,inhibition of HTR1F,HTR1F [3],potently inhibit
CN(C)[C@@H]1CCc2[nH]c3ccc(NC(=O)c4ccc(F)cc4)cc3c2C1 [LY344864],beta cell death (TUNEL+ insulin+ cells),primary human beta cells,increase beta cell death
same,Ki,[4],1.5 to 5 µM
same,Ki,other HTR1 receptors,> 500 nM
same,EC50,HTR1F [5],3 nM
same,primary human islet cell death (Sytox Green),primary human islet cell,increase primary human islet cell death
OC(COc1ccc2ccccc2c1)CN1CCC(O)(c2cnc3ccccc3c2)CC1 (centres unmarked) [1-(2-hydroxy-3-(naphthalen-2-yloxy)propyl)-4-(quinolin-3-yl)piperidin-4-ol],increase in insulin secretion at high glucose concentration,human islets,40%
same,inhibition of HTR1F (cAMP luminescence),HTR1F [6],inhibition of HTR1F
pertussis toxin,effect on HTR1F-induced cell death,[7],blocked
